Earlier results on 3 compounds are cited in patent publication US20040072746A1, “Inhibitors of monocarboxylate transport” (priority 2001, published 2004).

Structures are written as SMILES.

This series concerns the target T1, rat MCT1 (Rattus norvegicus, UniProt P53987).
T1 sequence (P53987 1-494): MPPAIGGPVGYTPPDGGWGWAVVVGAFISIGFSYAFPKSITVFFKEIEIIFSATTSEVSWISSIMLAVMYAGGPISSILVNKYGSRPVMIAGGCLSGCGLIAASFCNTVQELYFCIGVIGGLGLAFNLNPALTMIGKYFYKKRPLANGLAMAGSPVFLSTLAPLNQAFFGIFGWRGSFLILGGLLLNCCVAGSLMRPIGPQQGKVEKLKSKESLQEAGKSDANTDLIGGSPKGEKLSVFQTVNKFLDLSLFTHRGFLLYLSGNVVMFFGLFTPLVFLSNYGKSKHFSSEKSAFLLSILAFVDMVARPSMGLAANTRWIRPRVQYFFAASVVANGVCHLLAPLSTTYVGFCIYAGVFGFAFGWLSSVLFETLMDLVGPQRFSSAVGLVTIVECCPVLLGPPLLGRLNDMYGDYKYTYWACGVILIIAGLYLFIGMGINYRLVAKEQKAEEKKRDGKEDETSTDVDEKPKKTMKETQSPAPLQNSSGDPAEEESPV
The conditions noted are these: cited from earlier work.
The IC50 is the midpoint of a concentration-inhibition curve. In the case of `O=C(CCc1ccc(O)cc1)c1c(O)cc(O)cc1O` [phloretin], the 50% inhibitory concentration (IC50) was 1 µM.

On to `N#CC(=Cc1ccc(O)cc1)C(=O)O` [CHC, α-cyano-4-hydroxycinnamate], for which the IC50 is 27 µM.

In the case of `O=S(=O)(O)c1cc(N=C=S)ccc1C=Cc1ccc(N=C=S)cc1S(=O)(=O)O` [DIDS, 4,4′-di-isothiocyanatostilbene-2,2′-disulphonate], the IC50 was 50 µM.
